The source of these data is patent publication US10344034B2, “Pyrazolopyrimidone or Pyrrolotriazone derivatives, method of preparing same, and pharmaceutical applications thereof” (Shanghai Hengrui Pharmaceutical Co., Ltd., priority 2013, dated 2019).

Each structure is given as a SMILES string.

For the assay, the target named is human GnRHr (Homo sapiens (Human), UniProt P30968). As to the kind of experiment: Human GnRHr (GnRH receptor) activity assay, Fluo-4 calcium signal in Human GnRHr/CHO stably transfected cell lines. It is filed as cell-based. The note with it: Human GnRHr/CHO cells, GnRH polypeptide stimulant. The protocol: Test Example 1. Human GnRHr (GnRH Receptor) Activity Assay of the Present Compounds.
Chain of human GnRHr (P30968 whole entry): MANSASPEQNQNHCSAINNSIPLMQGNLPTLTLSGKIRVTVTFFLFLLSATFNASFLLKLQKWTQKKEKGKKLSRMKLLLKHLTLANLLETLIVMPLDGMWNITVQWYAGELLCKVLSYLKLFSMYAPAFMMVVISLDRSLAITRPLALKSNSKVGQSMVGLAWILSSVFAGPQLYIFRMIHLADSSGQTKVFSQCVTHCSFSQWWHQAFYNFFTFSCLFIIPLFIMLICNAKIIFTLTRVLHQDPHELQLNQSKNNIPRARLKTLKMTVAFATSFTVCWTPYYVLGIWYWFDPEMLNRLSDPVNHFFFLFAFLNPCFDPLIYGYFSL
In vitro GnRHr protein activity was tested by the following methods.
This assay was used to determine the inhibition effect of the present compound on the activity of human GnRHr protein expressed by Human GnRHr/CHO stably transfected cell lines.
A mammalian expression vector containing the human GnRHr gene was transferred into CHO cells by adding Lipofectamine® LTX reagent containing Plus™. Antibiotics were added the next day for screening to pick out the monoclonal cell lines.
The Human GnRHr/CHO stably transfected cell lines were inoculated in 96-well plates with an inoculation density of 25,000 cells/well. The culture medium was removed the next day, and loading buffer containing Fluo-4 dye was added to the plate (100 μL/well) and incubated for 30 minutes at 37° C. The plate was moved to room temperature and equilibrated for 10 minutes. Each compound was diluted with DMSO to seven concentration gradients of 100 μM, 10 μM, 1 μM, 0.1 μM, 0.01 μM, 0.001 μM, 0.0001 μM. Then, 1 μl of each gradient was added to each well and incubated for 10 minutes at room temperature. After automated addition of 50 μL of GnRH polypeptide stimulant solution, the value was immediately detected at 494/516 […] by a microplate reader (flexstation 3). IC50 values of the compounds were calculated by software from different fluorescence signals at various corresponding concentrations.
The inhibitory activity of the present compounds on human GnRHr was determined by the above assay, and IC50 values are shown in Table 1.

As a reminder, the IC50 is the concentration that inhibits the measured activity by half. For the compound `CCNC(=O)Nc1ccc(-n2nc3c(c2CN(C)C)c(=O)n(-c2cccc(OC)c2F)c(=O)n3Cc2c(F)cccc2C(F)(F)F)cc1` [Example 6, 1-(4-(3-((dimethylamino)methyl)-5-(2-fluoro-3-methoxyphenyl)-7-(2-fluoro-6-(trifluoromethyl)benzyl)-4,6-dioxo-4,5,6,7-tetrahydro-2H-pyrazolo[3,4-d]pyrimidin-2-yl)phenyl)-3-ethylurea], the IC50 came to 0.96 nM.
As for `CONC(=O)Nc1ccc(-n2nc3c(c2CN(C)C)c(=O)n(-c2cccc(OC)c2F)c(=O)n3Cc2c(F)cccc2C(F)(F)F)cc1` [Example 7, 1-(4-(3-((dimethylamino)methyl)-5-(2-fluoro-3-methoxyphenyl)-7-(2-fluoro-6-(trifluoromethyl)benzyl)-4,6-dioxo-4,5,6,7-tetrahydro-2H-pyrazolo[3,4-d]pyrimidin-2-yl)phenyl)-3-methoxyurea], the IC50 was found to be 0.49 nM.
In the case of `CNC(=O)Nc1ccc(-n2nc3c(c2CN(C)C)c(=O)n(-c2ccc(OC)nn2)c(=O)n3Cc2c(F)cccc2C(F)(F)F)cc1` [Example 12, 1-(4-(3-((dimethylamino)methyl)-7-(2-fluoro-6-(trifluoromethyl)benzyl)-5-(6-methoxypyridazin-3-yl)-4,6-dioxo-4,5,6,7-tetrahydro-2H-pyrazolo[3,4-d]pyrimidin-2-yl)phenyl)-3-methylurea], the IC50 was 2.24 nM.
The same measure for `CNC(=O)Nc1ccc(-c2cn3c(c2CN(C)C)c(=O)n(-c2cccc(OC)c2F)c(=O)n3Cc2c(F)cccc2F)cc1` [Example 14, 1-(4-(1-(2,6-difluorobenzyl)-5-((dimethylamino)methyl)-3-(2-fluoro-3-methoxyphenyl)-2,4-dioxo-1,2,3,4-tetrahydropyrrolo[2,1-f][1,2,4]triazin-6-yl)phenyl)-3-methylurea]: 0.11 nM; for `CONC(=O)Nc1ccc(-c2cn3c(c2CN(C)C)c(=O)n(-c2cccc(OC)c2F)c(=O)n3Cc2c(F)cccc2F)cc1` [Example 15, 1-(4-(1-(2,6-difluorobenzyl)-5-((dimethylamino)methyl)-3-(2-fluoro-3-methoxyphenyl)-2,4-dioxo-1,2,3,4-tetrahydropyrrolo[2,1-f][1,2,4]triazin-6-yl)phenyl)-3-methoxyurea]: 0.43 nM.
Regarding `CNC(=O)Nc1ccc(-c2cn3c(c2CN(C)C)c(=O)n(-c2ccc(OC)nn2)c(=O)n3Cc2c(F)cccc2F)cc1` [Example 16, 1-(4-(1-(2,6-difluorobenzyl)-5-((dimethylamino)methyl)-3-(6-methoxypyridazin-3-yl)-2,4-dioxo-1,2,3,4-tetrahydropyrrolo[2,1-f][1,2,4]triazin-6-yl)phenyl)-3-methylurea], the IC50 is 2.32 nM.
